Measurements reported in patent US9915659B2, “Systems and methods for prognosticating brain tumors” (Cedars-Sinai Medical Center, priority 2013, dated 2018).
Entries after “also recorded” stand apart in the source; their conditions may differ.

Columns and labels:
GBM patients [1] = assay: Survival of temozolomide-treated GBM patients stratified by ZEB1 copy number and MGMT expression; type: in vivo, human; details: temozolomide treatment
Description: Given our observations that ZEB1 and CD133 expression imparts GSC resistance to differentiation and impacts patient survival, we considered if ZEB1 loss would impact response to therapy. To do this, we explored the role of 06-methylguanine-DNA methyltransferase (MGMT) which removes DNA alkylating agents and therefore hinders the effectiveness of chemotherapeutic alkylating agents including temozolomide.^28 The MGMT promoter region has been shown when hypermethylated to suppress MGMT activity conferring chemosensitivity resulting in favorable prognosis compared to the hypomethylated state of MGMT which results in poor patient outcomes. MGMT expression is inversely correlated to its methylated state. We sought to determine the effect of ZEB1 loss on the clinical impact of hypermethylation of MGMT in the presence of temozolomide.
MGMT expression is inversely correlated to its methylated state. We sought to determine the effect of ZEB1 deletion on the clinical impact of hypermethylation of MGMT in the presence of temozolomide.

glioblastoma patients = assay: Overall survival of 403 glioblastoma patients treated with or without bevacizumab, stratified by ZEB1 expression; type: in vivo, human; details: general patient population
Description: Studies reported OS results by ZEB1 status and permutations of ZEB1/IDH1 status via (1) Kaplan-Meier curves, (2) hazard ratios (HRs) and corresponding 95% confidence intervals, (3) c-statistic. We translated all reports of survival outcomes to the number of events and the survival time. Patients not experiencing event were censored at the last follow-up date.
Data are presented as frequency (percentage, %) for categorical variables and median (IQR, interquartile range) for continuous variables. ZEB1 and IDH1 mRNA values were log base 2 transformed. Univariate associations between variables were examined with Wilcoxon rank-sum test, chi-square test, or Spearman rank correlation, where appropriate. A Cox proportional hazards regression model was employed in univariate and multivariable analyses to identify variables that predict OS. The proportional hazards assumption was evaluated with Schoenfeld residuals and a Kolmogorov-type supremum test. Hazard ratios (HRs) were expressed as an increase from the 25th to 75th percentile in continuous variables. Multivariable analysis was further carried out with the Cox proportional hazards model to examine whether an improvement in predictive discriminatory power was obtained when ZEB1 was added to the model containing the known marker, IDH1 and age. […]

GBM patients [2] = assay: Kaplan-Meier overall survival of GBM patients treated with or without bevacizumab, stratified by ZEB1 copy number (study set J / data set of 78 GBM patients); type: in vivo, human
Description: Data are expressed as mean±s.e.m. Kaplan-Meier curves and p values were generated using Prism 6.0v. Two-tailed student's t-test, were used. A P value of *<0.05 was considered significant.

GBM patients [3] = details: two recent phase III trials; cited from earlier work
LIF promoter = assay: LIF luciferase reporter assay in GCSCs; type: cell-based, human; details: IFN-γ 200 ng/mL 72 hrs; all constructs except −109/+10 region
Experimental: (§1) To measure transcriptional activity of LIF, 0827 GSCs (1×10^4 cells per transfection, three replicates per condition) were transiently transfected with one of several deletion LIF luciferase reporter plasmids (1 ug; Switchgear) with the use of X-treme gene HP DNA (Roche), seeded in six-well plates (1×10^4 cell per well), and incubated for 48 hrs. IFN-γ cytokine (200 ng/mL) was added to the cultures and the cells were incubated for 72 hrs. The cells were harvested and the luciferase activity was measured with the use of a GloMax 20/20 Luminometer (Promega, Madison, Wis.). These experiments were carried out in triplicate on three different occasions.
as §1, with “GCSCs” for “GSCs”, “IFN-6” for “IFN-γ”, “occasions. […]” for “occasions.”

GSCs [4] = assay: CD133 staining of GSCs by flow cytometry (FACs); type: cell-based, human; details: IFN-γ 7 days (100 ng/ml)
Experimental: (§2) GSCs were washed with 1× PBS buffer 3 times and resuspended in 1× PBS. GSCs were fixed in 4% formaldehyde for 15 min at room temperature. Cells were washed with 1× PBS buffer and were incubated in 0.1% Triton X-100 for 5 min, washed and then incubated with FcR Blocker (Mitenyi Biotech) followed by incubation with CD133 antibody conjugated to Phycoerythrin (PE) or although not shown an isotype control was also performed (Mitenyi Biotech), protected from light for 1 hr at room temperature. Cells were washed and analyzed on a FACscan flow cytometer (BD Biosciences, San Jose, Calif.).
as §2, with “performed (Miltenyi” for “performed (Mitenyi”, “1 […]” for “1 hr”, “(BD Biosciences).” for “(BD Biosciences, San Jose, Calif.).”
GCSCs were washed with 1× PBS buffer 3 times and resuspended in 1× PBS. GCSCs were fixed in 4% formaldehyde for 15 min at room temperature. […] Cells were washed and analyzed on a FACscan flow cytometer (BD Biosciences). […]

GCSCs = assay: ZEB1 expression by qRT-PCR in GCSCs treated with IFN-γ; type: cell-based, human; details: IFN-γ 3 days (200 ng/ml)
Experimental: FIGS. 15A-15J depict, in accordance with various embodiments of the present invention, effect of IFN-γ on LIF and ZEB1 activation in patient derived glioma cancer stem cells (GCSCs). (FIG. 15A) GCSCs were treated with IFN-γ for 3-days and ZEB1 expression levels were determined by qRT-PCR. (FIG. 15B) The percentage of CD133^+ GCSCs in the presence and absence of IFN-γ were determined by flow cytometry. GCSCs were incubated with IFN-γ for 7-days. (FIG. 15C) The effects of IFN-γ on secondary neurosphere formation. […] (FIG. 15E) Spearman correlation between LIF and ZEB1 GBM patients (n=28), rank correlation (R) and two-tailed significance is shown. (FIG. 15F) ZEB1 binding motifs within the LIF promoter (CAGGTG, ***P<0.0001 and CAGGTA,***P<0.0001). […]
To generate GSCs that stably express short hairpin RNAs (shRNAs) that target ZEB1, we co-transfected shRNA (Origene, Rockville Md.),—that target ZEB1 into our 0827 or 0323 GSCs, with a VSV-G expression plasmid (Clontech) into the GP2-293 packaging cell line (Clontech) according to the manufacturer's instructions. […] Cells that were resistant to puromycin were characterized for ZEB1 expression by immunoblotting and subsequent cell proliferation using 5-ethynyl-2′-deoxyuridine (EdU) Click-IT assay (Life Technologies) using fluorescence activated cell sorting (FACs) analysis according to the manufacturer's instructions. […]

GSCs [5] = assay: Neurosphere formation and limiting dilution sphere-forming assay; type: cell-based, human; details: IFN-γ treated GSCs
Experimental: (§3) Neural Basal A media (Invitrogen) supplemented with EGF and bFGF (R&D Systems) were used to culture primary patient derived glioma stem cells (GSCs) which were dissociated into single cells sorted for CD133 expression and plated onto 24 well plates with various seeding densities (4-100 cells/well). GSCs were incubated at 37° C. at 5% CO2 for 2 to 3 weeks. GSCs were then quantified for neurosphere formation.
as §3, with “GCSCs” for “glioma stem cells (GSCs)”, “GCSCs” for “GSCs”

**Q.** Which “hazard ratio, patient survival, ZEB1 deletion vs wildtype ZEB1” value (GBM patients [1]; high MGMT expression (n=121)) does the source give for `Cn1nnc2c(C(N)=O)ncn2c1=O` [temozolomide] here?
**A.** 1.59

**Q.** What about the “hazard ratio, patient survival, ZEB1 deletion vs wildtype ZEB1” value (GBM patients [1]; low MGMT expression (n=115)) of the same molecule?
**A.** 1.56

**Q.** What does the source list for bevacizumab?
**A.** effect on patient survival (glioblastoma patients): did little to alter patient survival; effect on patient survival (GBM patients [2]; ZEB1 deleted patients): significant survival benefit; also recorded: increase in survival; effect on patient survival (GBM patients [2]; ZEB1 intact / ZEB1 wt patients): no change in survival; also recorded: no effect; effect on patient survival (GBM patients [2]; general patient population, independent data set of 78 GBM patients): did little to alter patient survival; survival advantage in GBM patients (GBM patients [3]): no survival advantage

B1: IFN-γ: proinflammatory cytokine interferon gamma (eBioscience) (protein, UniProt P01579 24-161, looked up)
Interferon gamma: QDPYVKEAENLKKYFNAGHSDVADNGTLFLGILKNWKEESDRKIMQSQIVSFYFKLFKNFKDDQSIQKSVETIKEDMNVKFFNSNKKKRDDFEKLTNYSVTDLNVQRKAIHELIQVMAELSPAAKTGKRKRSQMLFRG
**Q.** Which “LIF transcriptional activity (luciferase deletion constructs)” value (LIF promoter) does the source give for B1 here?
**A.** suppressive effect

**Q.** What about the CD133 expression (GSCs [4]) of the same molecule?
**A.** decreased

**Q.** What about the “ZEB1 induction (expression) vs untreated” value (GCSCs) of the same molecule?
**A.** significant increase; also recorded: induced

**Q.** What about the secondary neurosphere formation (GSCs [5]) of the same molecule?
**A.** decreased

**Q.** And the “self-renewal capabilities vs untreated” value (GSCs [5]; limiting dilution)?
**A.** decreased
